53 compounds from US10919852B2, “Immunomodulator compounds” (CHEMOCENTRYX, INC., priority 2017, dated 2021) can be followed below.

As usually defined, the IC50 is the midpoint of a concentration-inhibition curve. Low values mean greater potency in that assay, high ones weaker potency in that assay.

Sequence of human PD-L1 / Human PD-1 (Q9NZQ7 19-239): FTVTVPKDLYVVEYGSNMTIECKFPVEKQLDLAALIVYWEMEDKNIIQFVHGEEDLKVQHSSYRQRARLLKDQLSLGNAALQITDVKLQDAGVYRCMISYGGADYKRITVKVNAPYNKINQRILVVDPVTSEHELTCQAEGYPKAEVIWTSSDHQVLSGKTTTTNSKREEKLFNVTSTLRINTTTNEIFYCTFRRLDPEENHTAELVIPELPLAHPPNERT

This test has as its target human PD-L1 / Human PD-1 (Homo sapiens (Human), UniProt Q9NZQ7). As to the kind of experiment: Enzyme-Linked Immunosorbent Assay (ELISA), PD-1/PD-L1 binding. The note with it: plate-coated human PD-L1, biotinylated human PD-1. An outline of the steps: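 Compound dilutions (1:5 series) competed with 0.3 μg/mL biotin-labelled human PD-1 for PD-L1 immobilised at […], for 1 h at 37 °C. Read-out was A450 after streptavidin-HRP and a 20 min TMB reaction, stopped with 2 N H2SO4.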
For `Cc1c(OCCCN2CC[C@@H](O)C2)cccc1-c1cccc2c1CC[C@@H]2Oc1cc(OCc2cncc(C#N)c2)c(CN[C@H](C(=O)O)[C@@H](C)O)cc1Cl`, the IC50 was under 5 nM.
In the case of `Cc1c(OCCCN2CCC(F)CC2)cccc1-c1cccc2c1CC[C@@H]2Oc1cc(OCc2cncc(C#N)c2)c(CN[C@H](C(=O)O)[C@@H](C)O)cc1Cl` it was under 5 nM; in that of `Cc1c(OCCCN2CCC(CO)CC2)cccc1-c1cccc2c1CC[C@@H]2Oc1cc(OCc2cncc(C#N)c2)c(CN[C@H](C(=O)O)[C@@H](C)O)cc1Cl`, under 5 nM.
As for `Cc1c(OCCCN2CC(O)C2)cccc1-c1cccc2c1CC[C@@H]2Oc1cc(OCc2cncc(C#N)c2)c(CN[C@H](C(=O)O)[C@@H](C)O)cc1Cl`, the IC50 was under 5 nM.
In the case of `C[C@@](CO)(NCc1cc(Cl)c(O[C@H]2CCc3c(-c4cccc(OCCCN5CCC(O)CC5)c4Cl)cccc32)cc1OCc1cncc(C#N)c1)C(=O)O` it was under 5 nM; in that of `N#Cc1cncc(-c2cc(O[C@H]3CCc4c(-c5cccc(OCCCN6CCC(F)CC6)c5Cl)cccc43)c(Cl)cc2CN[C@@H]2CCCC[C@@H]2O)c1`, 5 to 500 nM; in that of `C[C@@H](O)[C@H](NCc1cc(Cl)c(O[C@H]2CCc3c(-c4cccc(OCCCN5CCC(F)CC5)c4Cl)cccc32)cc1OCc1cncc(C#N)c1)C(=O)NS(C)(=O)=O`, under 5 nM.
The same measure for `N#Cc1cncc(COc2cc(O[C@H]3CCc4c(-c5cccc(OCCCN6CCC(F)CC6)c5Cl)cccc43)c(Cl)cc2CN[C@@H]2CCOC[C@H]2O)c1`: under 5 nM; for `N#Cc1cncc(COc2cc(O[C@H]3CCc4c(-c5cccc(OCCCN6CCC(F)CC6)c5Cl)cccc43)c(Cl)cc2CN[C@@H]2CCOC[C@@H]2O)c1`: under 5 nM.
Regarding `N#Cc1cncc(COc2cc(O[C@H]3CCc4c(-c5cccc(OCCCN6CCC(F)CC6)c5Cl)cccc43)c(Cl)cc2CN[C@H]2CCOC[C@H]2O)c1`, the half-maximal inhibitory concentration (IC50) is under 5 nM.
The compound `N#Cc1cncc(COc2cc(O[C@H]3CCc4c(-c5cccc(OCCCN6CC7(CC(O)C7)C6)c5Cl)cccc43)c(Cl)cc2CN[C@@H]2CCC[C@@H]2O)c1` yielded an IC50 of under 5 nM.
In the case of `N#Cc1cncc(COc2cc(O[C@H]3CCc4c(-c5cccc(OCCCN6CC7(CC(O)C7)C6)c5Cl)cccc43)c(Cl)cc2CN[C@@H]2CCC[C@H]2O)c1` it was under 5 nM; in that of `N#Cc1cncc(COc2cc(O[C@H]3CCc4c(-c5cccc(OCCCN6CC7(CC(O)C7)C6)c5Cl)cccc43)c(Cl)cc2CN[C@H]2CCC[C@H]2O)c1`, under 5 nM.
On to `N#Cc1cncc(COc2cc(O[C@H]3CCc4c(-c5cccc(OCCCN6CCC(F)CC6)c5Cl)cccc43)c(Cl)cc2CN2CCNC(=O)C2)c1`, for which the IC50 lay within 5 to 500 nM.
In the case of `N#Cc1cncc(COc2cc(O[C@H]3CCc4c(-c5cccc(OCCCN6CCC(F)CC6)c5Cl)cccc43)c(Cl)cc2CN[C@@H]2CCOC[C@@H]2F)c1` it was 5 to 500 nM; in that of `N#Cc1cncc(COc2cc(O[C@H]3CCc4c(-c5cccc(OCCCN6CCC(F)CC6)c5Cl)cccc43)c(Cl)cc2CN[C@H]2CCC(=O)NC2)c1`, under 5 nM; in that of `N#Cc1cncc(COc2cc(O[C@H]3CCc4c(-c5cccc(OCCCN6CC7(CC(O)C7)C6)c5Cl)cccc43)c(Cl)cc2CN[C@H]2CCC[C@@H]2O)c1`, under 5 nM.
The same measure for `N#Cc1cncc(COc2cc(O[C@H]3CCc4c(-c5cccc(OCCCN6CC7(CC(O)C7)C6)c5Cl)cccc43)c(Cl)cc2CN2CCCC3(C2)NC(=O)NC3=O)c1` (some centres unmarked): 5 to 500 nM.
In the case of `N#Cc1cncc(COc2cc(O[C@H]3CCc4c(-c5cccc(OCCCN6CC7(CC(O)C7)C6)c5Cl)cccc43)c(Cl)cc2CN2CCC3(C2)NC(=O)NC3=O)c1` (some centres unmarked) it was 5 to 500 nM; in that of `N#Cc1cncc(COc2cc(O[C@H]3CCc4c(-c5cccc(OCCCN6CCC(F)CC6)c5Cl)cccc43)c(Cl)cc2CN[C@@H]2CCC(=O)NC2)c1`, under 5 nM.
`N#Cc1cc(C#N)cc(COc2cc(O[C@H]3CCc4c(-c5cccc(OCCCN6CCC(F)CC6)c5Cl)cccc43)c(Cl)cc2CNC[C@H]2CCC(=O)N2)c1` had an IC50 of under 5 nM.
`N#Cc1cncc(COc2cc(O[C@H]3CCc4c(-c5cccc(OCCC(N)=O)c5Cl)cccc43)c(Cl)cc2CN[C@@H]2CCCC[C@@H]2O)c1` showed a half-maximal inhibitory concentration (IC50) of 5 to 500 nM.
The same measure for `N#Cc1cncc(COc2cc(O[C@H]3CCc4c(-c5cccc(OCCC(N)=O)c5Cl)cccc43)c(Cl)cc2CNC[C@H]2CCC(=O)N2)c1`: 5 to 500 nM; for `N#Cc1cncc(COc2cc(O[C@H]3CCc4c(-c5cccc(OCCCN6CC7(CC(F)C7)C6)c5Cl)cccc43)c(Cl)cc2CN[C@@H]2CCC[C@@H]2O)c1`: under 5 nM.
Compound `N#Cc1cncc(COc2cc(O[C@H]3CCc4c(-c5cccc(OCCCN6CC7(CC(F)C7)C6)c5Cl)cccc43)c(Cl)cc2CN[C@@H]2CCC[C@H]2O)c1` gave an IC50 of under 5 nM.
The same measure for `N#Cc1cncc(COc2cc(O[C@H]3CCc4c(-c5cccc(OCCCN6CC7(CC(F)C7)C6)c5Cl)cccc43)c(Cl)cc2CN2CCC3(C2)NC(=O)NC3=O)c1` (some centres unmarked): 5 to 500 nM.
The same measure for `Cc1c(OCCCN2CCCCC2)cccc1-c1cccc2c1CC[C@@H]2Oc1cc(OCc2cc(C#N)cc(C#N)c2)c(CNC[C@H]2CCC(=O)N2)cc1Cl`: under 5 nM; for `Cc1c(OCCCN2CCCCC2)cccc1-c1cccc2c1CC[C@@H]2Oc1cc(OCc2cc(C#N)cc(C#N)c2)c(CN[C@@H]2CCCC[C@@H]2O)cc1Cl`: under 5 nM.
Turning to `Cc1c(OCCCN2CCC(F)CC2)cccc1-c1cccc2c1CC[C@@H]2Oc1cc(OCc2cc(C#N)cc(C#N)c2)c(CN[C@@H]2CCC[C@@H]2O)cc1Cl`, the concentration for half-maximal inhibition (IC50) is under 5 nM.
Regarding `Cc1c(OCCCN2CCC(F)CC2)cccc1-c1cccc2c1CC[C@@H]2Oc1cc(OCc2cc(C#N)cc(C#N)c2)c(CN2CCC3(C2)NC(=O)NC3=O)cc1Cl` (some centres unmarked), the concentration for half-maximal inhibition (IC50) was in the range of 5 to 500 nM.
The same measure for `Cc1c(OCCCN2CCC(F)CC2)cccc1-c1cccc2c1CC[C@@H]2Oc1cc(OCc2cc(C#N)cc(C#N)c2)c(CN[C@@H]2CCOC[C@H]2O)cc1Cl`: under 5 nM; for `Cc1c(OCCCN2CCC(F)CC2)cccc1-c1cccc2c1CC[C@@H]2Oc1cc(OCc2cc(C#N)cc(C#N)c2)c(CN[C@@H]2CCC[C@H]2O)cc1Cl`: under 5 nM.
The compound `Cc1c(OCCCN2CCC(F)CC2)cccc1-c1cccc2c1CC[C@@H]2Oc1cc(OCc2cc(C#N)cc(C#N)c2)c(CN[C@H]2CCC[C@@H]2O)cc1Cl` came in with a half-inhibitory concentration (IC50) of under 5 nM.
In the case of `N#Cc1cncc(COc2cc(O[C@H]3CCc4c(-c5cccc(OCCCN6CCC(F)CC6)c5Cl)cccc43)c(Cl)cc2CN2CC3(C2)NC(=O)NC3=O)c1` it was under 5 nM.
In the case of `N#Cc1cncc(COc2cc(O[C@H]3CCc4c(-c5cccc(OCCCN6CCC(F)CC6)c5Cl)cccc43)c(Cl)cc2CN[C@H]2CC[C@@H]2O)c1` it was under 5 nM.
In the case of `Cc1c(OCCCN2CCC(F)CC2)cccc1-c1cccc2c1CC[C@@H]2Oc1cc(OCc2cc(C#N)cc(C#N)c2)c(CN[C@H]2CCC[C@H]2O)cc1Cl` it was under 5 nM.
Turning to `Cc1c(OCCCN2CCC(F)CC2)cccc1-c1cccc2c1CC[C@@H]2Oc1cc(OCc2cc(C#N)cc(C#N)c2)c(CN[C@H]2CCOC[C@H]2O)cc1Cl`, the IC50 is under 5 nM.
`Cc1c(OCCCN2CCC(F)CC2)cccc1-c1cccc2c1CC[C@@H]2Oc1cc(OCc2cc(C#N)cc(C#N)c2)c(CN[C@H]2CCC(=O)NC2)cc1Cl` registered a half-maximal inhibitory concentration (IC50) of 5 to 500 nM.
The same measure for `Cc1c(OCCCN2CCC(F)CC2)cccc1-c1cccc2c1CC[C@@H]2Oc1cc(OCc2cc(C#N)cc(C#N)c2)c(CN2CC3(C2)NC(=O)NC3=O)cc1Cl`: 5 to 500 nM; for `Cc1c(OCCCN2CCC(C)(F)CC2)cccc1-c1cccc2c1CC[C@@H]2Oc1cc(OCc2cc(C#N)cc(C#N)c2)c(CNC[C@H]2CCC(=O)N2)cc1Cl`: 5 to 500 nM; for `Cc1c(OCCCN2CCC(C)(F)CC2)cccc1-c1cccc2c1CC[C@@H]2Oc1cc(OCc2cc(C#N)cc(C#N)c2)c(CNC[C@@H]2CCC(=O)N2)cc1Cl`: 5 to 500 nM.
In the case of `N#Cc1cncc(COc2cc(O[C@H]3CCc4c(-c5cccc(OCCCN6CC7(CC(F)C7)C6)c5Cl)cccc43)c(Cl)cc2CN[C@H]2CCC[C@H]2O)c1` it was under 5 nM; in that of `N#Cc1cncc(COc2cc(O[C@H]3CCc4c(-c5cccc(OCCCN6CCC6)c5Cl)cccc43)c(Cl)cc2CN[C@@H]2CCCC[C@@H]2O)c1`, under 5 nM.
`N#Cc1cncc(COc2cc(O[C@H]3CCc4c(-c5cccc(OCCCN6CC7(CC(F)C7)C6)c5Cl)cccc43)c(Cl)cc2CN[C@H]2CCC[C@@H]2O)c1` gave an IC50 of under 5 nM.
Regarding `N#Cc1cncc(COc2cc(O[C@H]3CCc4c(-c5cccc(OCCCN6CC7(CC(F)C7)C6)c5Cl)cccc43)c(Cl)cc2CN2CC3(C2)NC(=O)NC3=O)c1`, the half-maximal inhibitory concentration (IC50) lay within 5 to 500 nM.
In the case of `N#Cc1cncc(COc2cc(O[C@H]3CCc4c(-c5cccc(OCCCN6CCC6)c5Cl)cccc43)c(Cl)cc2CNC[C@H]2CCC(=O)N2)c1` it was under 5 nM; in that of `N#Cc1cncc(COc2cc(O[C@H]3CCc4c(-c5cccc(OCCCN6CC7(CC(F)C7)C6)c5Cl)cccc43)c(Cl)cc2CNC[C@@H]2CCC(=O)N2)c1`, under 5 nM; in that of `N#Cc1cncc(COc2cc(O[C@H]3CCc4c(-c5cccc(OCCCN6CC7(CC(F)C7)C6)c5Cl)cccc43)c(Cl)cc2CNC[C@H]2CCC(=O)N2)c1`, under 5 nM.
For `CN1CCC(COc2cccc(-c3cccc4c3CC[C@@H]4Oc3cc(OCc4cncc(C#N)c4)c(CN[C@@H]4CCCC[C@@H]4O)cc3Cl)c2Cl)C1` (some centres unmarked), the IC50 is under 5 nM.
In the case of `CN1CCC(COc2cccc(-c3cccc4c3CC[C@@H]4Oc3cc(OCc4cncc(C#N)c4)c(CNC[C@H]4CCC(=O)N4)cc3Cl)c2Cl)C1` (some centres unmarked) it was under 5 nM; in that of `N#Cc1cncc(COc2cc(O[C@H]3CCc4c(-c5cccc(OCCCN6CC7(C6)CC(F)(F)C7)c5Cl)cccc43)c(Cl)cc2CN[C@@H]2CCC[C@@H]2O)c1`, under 5 nM; in that of `N#Cc1cncc(COc2cc(O[C@H]3CCc4c(-c5cccc(OCCCN6CC7(C6)CC(F)(F)C7)c5Cl)cccc43)c(Cl)cc2CN[C@@H]2CCC[C@H]2O)c1`, under 5 nM.
The same measure for `Cc1c(OCCCN2CC3(CCC3)C2)cccc1-c1cccc2c1CC[C@@H]2Oc1cc(OCc2cc(C#N)cc(C#N)c2)c(CNC[C@H]2CCC(=O)N2)cc1Cl`: 5 to 500 nM.
